Experimental data taken from patent US9212168B2 (priority 2011, dated 2015).

Assays:
[1] = system: HCV genotype 1a Y93H resistant mutant replicon; test: Replicon assay against resistant mutant 1a Y93H (transient transfection); assay type: cell-based; details: Hepatitis C virus, read-out: Genotype 1a Y93H
Protocol: Assay 3: Replicon Assays Against Resistant Mutants […]
Potencies of test compounds against additional mutations of interest were determined using transient transfection assays. These mutants included genotype 1a Y93C, Y93H, M28T, Q30E, Q30K, L31M, and Y93N. The mutation was first introduced into the parental plasmid by site-directed mutagenesis. The replicon plasmid was then linearized and in vitro transcribed to RNA. The RNA was used to transiently transfect Huh-LUNET cells (obtained from ReBLikon GmbH, Schriesheim, Germany) by electroporation, and the potencies of test compounds against the mutants were determined as previously described.

HCV genotype 1a replicon = HCV genotype 1a replicon assay (NS3 protease activity readout); assay type: cell-based, hepatitis C virus; details: for EC50: Hepatitis C virus, read-out: Genotype 1a, HCV genotype 1a replicon; for Genotype 1a: HCV genotype 1a replicon
Procedure, shortened: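 Genotype 1a subgenomic replicon cells (APC89, Huh7.5) were treated with compound dose-responses in G418-free medium, 0.5% DMSO final, for 48 or 72 hours at 37° C. Lysate NS3/4a protease activity measured with 15 μM FRET substrate, 20 min at 37° C (ex 340/em 509 nm); EC50 by 4-parameter fit.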

[2] = system: HCV genotype 3a NS5A chimeric replicon; test: Replicon assay against NS5A sequence of genotype 3a, intergenotypic chimera; assay type: cell-based; details: Hepatitis C virus, read-out: Genotype 3a
Protocol: (§1) Assay 4: Replicon Assays Against NS5A Sequences of Other Genotypes
(§2) Potencies of test compounds against NS5A sequences of other genotypes were determined by creating intergenotypic chimeras. The entire NS5A gene from genotypes 2a, 2b, 3a, 4a, 5a, and 6a, or the nucleotide sequence encoding amino acids 11-118 of NS5A, was subcloned into a genotype 1b replicon. For genotype 2a, intergenotypic chimeras with both the JFH and the J6 strain were created. […] Since the majority of genotype 2a sequences in public databases contain the L31M sequence variant, the use of the J6 genotype 2a sequence may better reflect the antiviral potency of NS5A inhibitors.
(§3) These chimeric replicon plasmids were then linearized and in vitro transcribed to RNA. The RNA was used to transiently or stably transfect Huh-LUNET cells by electroporation, and the potencies of test compounds against the chimeras were determined as previously described.

[3] = system: HCV genotype 2a (J6 strain) NS5A chimeric replicon; test: Replicon assay against NS5A sequence of genotype 2a (J6 strain), intergenotypic chimera; assay type: cell-based; details: Hepatitis C virus, read-out: Genotype 2a (J6)
Protocol: as §1, §2, §3

HCV genotype 1b replicon = HCV genotype 1b replicon assay (Renilla luciferase readout); assay type: cell-based, hepatitis C virus; details: for EC50: Hepatitis C virus, read-out: Genotype 1b; for Genotype 1b: HCV genotype 1b replicon
Procedure, shortened: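 Huh7-derived APC144 subgenomic replicon cells carrying Renilla luciferase–NS3-NS5B, seeded 10,000/well without G418, then treated with compound dose-responses for 48 h at 37 °C (0.5% DMSO final). Luciferase signal fitted by 4-parameter model to EC50, reported as pEC50.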

SMILES | EC50 [1] [nM] | EC50 (HCV genotype 1a replicon) [nM] | EC50 [2] [nM] | EC50 [3] [nM] | EC50 (HCV genotype 1b replicon) [nM] | Genotype 1a (HCV genotype 1a replicon) | Genotype 1b (HCV genotype 1b replicon)
COC(=O)N[C@H](C(=O)N1C[C@@H](C(N)=O)C[C@H]1c1nc(-c2ccc(-c3cc(Cl)c(NC(=O)c4ccc(N5CCN(C(=O)C(C)(C)C)C[C@H]5C)nc4)cc3OC(F)(F)F)cc2)c[nH]1)C(C)C [Example 18, [(S)-1-((2S,4S)-4-Carbamoyl-2-{4-[5′-chloro-4′-({6-[(R)-4-(2,2-dimethyl-propionyl)-2-methyl-piperazin-1-yl]-pyridine-3-carbonyl}-amino)-2′-trifluoromethoxy-biphenyl-4-yl]-1H-imidazol-2-yl}-pyrrolidine-1-carbonyl)-2-methyl-propyl]-carbamic acid methyl ester] | 1 to 10 | < 0.1 | 1 to 10 | 0.1 to 1 | < 0.1 | – | –
COC(=O)N[C@H](C(=O)N1C[C@@H](C)C[C@H]1c1nc(-c2ccc(-c3cc(F)c(NC(=O)c4ccc(N5CCN(C(=O)C(C)(C)C)C[C@H]5C)nc4)cc3OC(F)(F)F)cc2)c[nH]1)C(C)C [Example 11, [(S)-1-((2S,4S)-2-{4-[4′-({6-[(R)-4-(2,2-Dimethyl-propionyl)-2-methyl-piperazin-1-yl]-pyridine-3-carbonyl}-amino)-5′-fluoro-2′-trifluoromethoxy-biphenyl-4-yl]-1H-imidazol-2-yl}-4-methyl-pyrrolidine-1-carbonyl)-2-methyl-propyl]-carbamic acid methyl ester] | 10 to 1000 | < 0.1 | 1 to 10 | 1 to 10 | < 0.1 | – | –
COC(=O)N[C@H](C(=O)N1C[C@@H](C)C[C@H]1c1nc(-c2ccc(-c3ccc(C(=O)Nc4ccc(N5CCN(C(=O)[C@H]6CC6(C)C)C[C@H]5C)nc4)cc3OC(F)(F)F)cc2)c[nH]1)C(C)C [Example 8, ((S)-1-{(2S,4S)-2-[4-(4′-{6-[(R)-4-((S)-2,2-Dimethyl-cyclopropanecarbonyl)-2-methyl-piperazin-1-yl]-pyridin-3-ylcarbamoyl}-2′-trifluoromethoxy-biphenyl-4-yl)-1H-imidazol-2-yl]-4-methyl-pyrrolidine-1-carbonyl}-2-methyl-propyl)-carbamic acid methyl ester] | 10 to 1000 | < 0.1 | 10 to 1000 | 10 to 1000 | < 0.1 | – | –
COC(=O)N[C@H](C(=O)N1C[C@@H](C)C[C@H]1c1nc(-c2ccc(-c3c(Cl)cc(C(=O)Nc4ccc(N5CCN(C(=O)C(C)(C)C)C[C@H]5C)nc4)cc3OC(F)(F)F)cc2)c[nH]1)C1CCOCC1 [Example 20, Methyl ((S)-2-((2S,4S)-2-(4-(2′-chloro-4′-((6-((R)-2-methyl-4-pivaloylpiperazin-1-yl)pyridin-3-yl)carbamoyl)-6′-(trifluoromethoxy)-[1,1′-biphenyl]-4-yl)-1H-imidazol-2-yl)-4-methylpyrrolidin-1-yl)-2-oxo-1-(tetrahydro-2H-pyran-4-yl)ethyl)carbamate] | 1 to 10 | < 0.1 | 1 to 10 | 1 to 10 | < 0.1 | – | –
COC(=O)N[C@H](C(=O)N1CC2(C[C@H]1c1nc(-c3ccc(-c4ccc(NC(=O)c5ccc(N6CCN(C(=O)[C@H]7CC7(C)C)C[C@H]6C)nc5)cc4OC(F)(F)F)cc3)c[nH]1)OCCO2)C(C)C [Example 4, Methyl (S)-1-((S)-8-(4-(4′-(6-((R)-4-((S)-2,2-dimethylcyclopropanecarbonyl)-2-methylpiperazin-1-yl)nicotinamido)-2′-(trifluoromethoxy)biphenyl-4-yl)-1H-imidazol-2-yl)-1,4-dioxa-7-azaspiro[4.4]nonan-7-yl)-3-methyl-1-oxobutan-2-ylcarbamate] | 0.1 to 1 | < 0.1 | 1 to 10 | 1 to 10 | < 0.1 | – | –
COC(=O)N[C@H](C(=O)N1C[C@@H](C)C[C@H]1c1nc(-c2ccc(-c3ccc(C(=O)Nc4ccc(N5CCN(C(=O)C(C)(C)C)C[C@H]5C)nc4)c(F)c3OC(F)(F)F)cc2)c[nH]1)C1CCOCC1 [Example 21, Methyl ((S)-2-((2S,4S)-2-(4-(3′-fluoro-4′-((6-((R)-2-methyl-4-pivaloyl-piperazin-1-yl)pyridin-3-yl)carbamoyl)-2′-(trifluoromethoxy)-[1,1′-biphenyl]-4-yl)-1H-imidazol-2-yl)-4-methylpyrrolidin-1-yl)-2-oxo-1-(tetrahydro-2H-pyran-4-yl)ethyl)carbamate] | 0.1 to 1 | < 0.1 | 0.1 to 1 | 0.1 to 1 | < 0.1 | – | –
COC(=O)N[C@H](C(=O)N1C[C@@H](SC)C[C@H]1c1nc(-c2ccc(-c3ccc(C(=O)Nc4ccc(N5CCN(C(=O)[C@H]6CC6(C)C)C[C@H]5C)nc4)cc3OC(F)(F)F)cc2)c[nH]1)C(C)C [Example 9, ((S)-1-{(2S,4S)-2-[4-(4′-{6-[(R)-4-((S)-2,2-Dimethyl-cyclopropanecarbonyl)-2-methyl-piperazin-1-yl]-pyridin-3-ylcarbamoyl}-2′-trifluoromethoxy-biphenyl-4-yl)-1H-imidazol-2-yl]-4-methylsulfanyl-pyrrolidine-1-carbonyl}-2-methyl-propyl)-carbamic acid methyl ester] | – | < 0.1 | 10 to 1000 | 10 to 1000 | < 0.1 | – | –
COC(=O)N[C@H](C(=O)N1C[C@@H](C#N)C[C@H]1c1nc(-c2ccc(-c3cc(Cl)c(NC(=O)c4ccc(N5CCN(C(=O)OC(C)(C)C)C[C@H]5C)nc4)cc3OC(F)(F)F)cc2)c[nH]1)C(C)C [Example 17, (R)-4-[5-(5-Chloro-4′-{2-[(2S,4S)-4-cyano-1-((S)-2-methoxycarbonylamino-3-methyl-butyryl)-pyrrolidin-2-yl]-1H-imidazol-4-yl}-2-trifluoromethoxy-biphenyl-4-ylcarbamoyl)-pyridin-2-yl]-3-methyl-piperazine-1-carboxylic acid tert-butyl ester] | 10 to 1000 | 0.1 to 1 | 10 to 1000 | 10 to 1000 | – | – | –
COC(=O)N[C@H](C(=O)N1C[C@@H](C)C[C@H]1c1nc(-c2ccc(-c3cc(Cl)c(NC(=O)c4ccc(N5CCN(C(=O)[C@H]6CC6(C)C)C[C@H]5C)nc4)cc3OC(F)(F)F)cc2)c[nH]1)C(C)C [Example 2, [(S)-1-((2S,4S)-2-{4-[5′-Chloro-4′-({6-[(R)-4-((S)-2,2-dimethyl-cyclopropanecarbonyl)-2-methyl-piperazin-1-yl]-pyridine-3-carbonyl}-amino)-2′-trifluoromethoxy-biphenyl-4-yl]-1H-imidazol-2-yl}-4-methyl-pyrrolidine-1-carbonyl)-2-methyl-propyl]-carbamic acid methyl ester] | – | < 0.1 | 1 to 10 | 1 to 10 | < 0.1 | – | –
COC(=O)N[C@H](C(=O)N1C[C@@H](C)C[C@H]1c1nc(-c2ccc(-c3ccc(C(=O)Nc4ccc(N5C[C@H](C)N(C(=O)[C@H]6CC6(C)C)C[C@H]5C)nc4)cc3OC(F)(F)F)cc2)c[nH]1)C(C)C [Example 7, ((S)-1-{(2S,4S)-2-[4-(4′-{6-[(2R,5S)-4-((S)-2,2-Dimethyl-cyclopropanecarbonyl)-2,5-dimethyl-piperazin-1-yl]-pyridin-3-ylcarbamoyl}-2′-trifluoromethoxy-biphenyl-4-yl)-1H-imidazol-2-yl]-4-methyl-pyrrolidine-1-carbonyl}-2-methyl-propyl)-carbamic acid methyl ester] | – | < 0.1 | 10 to 1000 | 10 to 1000 | < 0.1 | – | –
COC(=O)N[C@H](C(=O)N1C[C@@H](C)C[C@H]1c1nc(-c2ccc(-c3ccc(NC(=O)c4ccc(N5CCN(C(=O)C(C)(C)C)C[C@H]5C)nc4)cc3OC(F)(F)F)cc2)c[nH]1)C(C)C [Example 1-75] | – | – | – | – | – | D (D represents pEC50>10 (EC50<0.1 nM)) | D (D represents pEC50>10 (EC50<0.1 nM))
COC(=O)N[C@H](C(=O)N1C[C@@H](OC)C[C@H]1c1nc(-c2ccc(-c3cc(Cl)c(NC(=O)c4ccc(N5C[C@H](C)N(C(=O)[C@]6(C)CCCN6C(=O)CN(C)C)C[C@H]5C)nc4)cc3OC(F)(F)F)cc2)c[nH]1)C1CCOCC1 [Example 28-19] | – | – | – | – | – | C (C represents pEC50 between and 9 and about 10, (EC50 between 1 nM and 0.1 nM)) | D (D represents pEC50>10 (EC50<0.1 nM))
COC(=O)N[C@H](C(=O)N1[C@@H]2C[C@@H]2C[C@H]1c1nc(-c2ccc(-c3cc(Cl)c(NC(=O)c4ccc(N5CCN(C(=O)C(C)(C)C)C[C@H]5C)nc4)cc3OC(F)(F)F)cc2)c[nH]1)C(C)C [Example 8-2] | – | < 0.1 | – | – | < 0.1 | – | –
